# Measurements: patent publication US20180057588A1, “Antibodies Towards an Extracellular Region of NBCn1” (Aarhus Universitet, priority 2015, published 2018)
# Assays:
# [1] = system: Na+,HCO3−-cotransport in primary aortic explants; experiment: Global pHi recovery and steady-state pHi in primary aortic explants (BCECF); type: cell-based, mouse
# Method: Primary explants were produced from thoracic aortas and common carotid arteries of NBCn1 KO and wild-type (WT) mice. To best maintain the cell morphology and phenotype of native VSMCs, cultured cells were never passaged but investigated directly in primary explants.
# (§1) Using wide-field fluorescence microscopy, global pHi was recorded in arteries and primary explants loaded with the pH-sensitive fluorophore BCECF. Recordings of pHi in subcellular domains were performed by confocal fluorescence microscopy of cells loaded with the pH-sensitive fluorophore carboxy SNARF-1. Intracellular buffering capacities were calculated from changes in pHi upon washout of NH4Cl. No difference in total intracellular buffering capacity (β) was seen between primary explants from NBCn1 KO and WT mice (βWT=15±2 mM, βKO=17±2 mM, n=8; P=0.45, unpaired two-tailed Student's t-test) evaluated at pHi 6.65-6.80.
# The PSS was composed of (in mM) 134 Na^+, 4 K^+, 1.6 Ca^2+, 1.2 Mg^2+, 111 Cl^−, 24 HCO3^−, 1.2 SO4^2−, 1.18 H2PO4^−, 10 HEPES, 5.5 glucose, 0.03 EDTA. In Na^+-free solutions, Na^+ was substituted with an equimolar amount of N-methyl-D-glucammonium (NMDG^+), except for NaHCO3, which was replaced with choline-HCO3. In HCO3^−-free solutions, HCO3^− was replaced with an equimolar amount of Cl^−. […]
# [2] = system: VSMC migration in primary aortic explants; experiment: Scratch-wound healing in primary aortic explants; type: cell-based, mouse
# Method: (§2) Rates of wound healing in primary explants were calculated from time-lapse images captured at 5-minute intervals after scratch infliction. Experiments were performed in Minimum Essential Medium with 10% fetal calf serum or—to avoid binding of the non-selective Na^+,HCO3^−-cotransport inhibitor S0859 to medium or serum components—in physiological saline solutions (PSS). Cell size was estimated based on cell density in confluent areas. Total filopodia length was determined relative to the length of the migrating front (i.e., twice the scratch length). Cell proliferation was evaluated (a) by counting the relative number of cells dividing during six hours time-lapse imaging and (b) as the proportion of cells positive for the thymidine analogue bromodeoxyuridine (BrdU) after six hours incubation.
# (§3) The PSS was composed of (in mM) 134 Na^+, 4 K^+, 1.6 Ca^2+, 1.2 Mg^2+, 111 Cl^−, 24 HCO3^−, 1.2 SO4^2−, 1.18 H2PO4^−, 10 HEPES, 5.5 glucose, 0.03 EDTA. In Na^+-free solutions, Na^+ was substituted with an equimolar amount of N-methyl-D-glucammonium (NMDG^+), except for NaHCO3, which was replaced with choline-HCO3. In HCO3^−-free solutions, HCO3^− was replaced with an equimolar amount of Cl^−. HCO3^−-containing solutions were aerated with a gas mixture of 5% CO2/balance air, whereas HCO3^−-free solutions were gassed with air (i.e., 21% O2/balance N2). All solutions were titrated to pH 7.4 at 37° C.
# [3] = system: VSMCs of primary aortic explants; experiment: VSMC proliferation by time-lapse counting of mitoses; type: cell-based, mouse; details: 5 μM, PSS, six hours time-lapse
# Method: as §2
# primary aortic explants = experiment: Cell integrity, morphology and viability during 18 hours of time-lapse imaging; type: cell-based, mouse
# Method: as §2, §3
# [4] = system: migrating VSMCs of primary aortic explants; experiment: Filopodia length at the migrating front after scratch infliction; type: cell-based, mouse; details: for presence of filopodia: 5 μM
# Method: as §2
# [5] = system: axial pHi gradient in migrating VSMCs of primary aortic explants; experiment: Subcellular pHi by confocal microscopy (carboxy SNARF-1) in migrating VSMCs; type: cell-based, mouse
# Method: as §1
# Previous studies from non-vascular cell types propose that increased acid extrusion at the leading edge of migrating cells creates an axial pHi gradient, which can facilitate actin polymerization, filopodia formation, and cell migration. To investigate pH gradients within cells, we measured pHi -differences between the tip of filopodia and the general (perinuclear) cytosol two hours after scratch infliction. […] With the intention of investigating local pHi dynamics in the region of the filopodia, we incubated primary explants in absence of CO2/HCO3^− for two hours after wound infliction to allow for filopodia formation. We then investigated pHi after an additional 15 minutes with or without CO2/HCO3^− or in the presence of pharmacological inhibitors (FIG. 13E,F). […]
# [6] = biological target: T1, NBCn1-mediated Na+,HCO3−-cotransport in MCF-7 human breast cancer cells (Homo sapiens, UniProt Q9Y6M7); details: earlier work; cited from earlier work
# T1 construct: net acid extrusion from MCF-7 cells occurs through a combination of NBCn1-mediated Na^+,HCO3^−-cotransport and NHE1-mediated Na^+/H^+-exchange; endogenous in cells; host or cells: MCF-7 human breast cancer cells (Lauritzen et al., 2010)
# T1 sequence (Q9Y6M7 1-1214): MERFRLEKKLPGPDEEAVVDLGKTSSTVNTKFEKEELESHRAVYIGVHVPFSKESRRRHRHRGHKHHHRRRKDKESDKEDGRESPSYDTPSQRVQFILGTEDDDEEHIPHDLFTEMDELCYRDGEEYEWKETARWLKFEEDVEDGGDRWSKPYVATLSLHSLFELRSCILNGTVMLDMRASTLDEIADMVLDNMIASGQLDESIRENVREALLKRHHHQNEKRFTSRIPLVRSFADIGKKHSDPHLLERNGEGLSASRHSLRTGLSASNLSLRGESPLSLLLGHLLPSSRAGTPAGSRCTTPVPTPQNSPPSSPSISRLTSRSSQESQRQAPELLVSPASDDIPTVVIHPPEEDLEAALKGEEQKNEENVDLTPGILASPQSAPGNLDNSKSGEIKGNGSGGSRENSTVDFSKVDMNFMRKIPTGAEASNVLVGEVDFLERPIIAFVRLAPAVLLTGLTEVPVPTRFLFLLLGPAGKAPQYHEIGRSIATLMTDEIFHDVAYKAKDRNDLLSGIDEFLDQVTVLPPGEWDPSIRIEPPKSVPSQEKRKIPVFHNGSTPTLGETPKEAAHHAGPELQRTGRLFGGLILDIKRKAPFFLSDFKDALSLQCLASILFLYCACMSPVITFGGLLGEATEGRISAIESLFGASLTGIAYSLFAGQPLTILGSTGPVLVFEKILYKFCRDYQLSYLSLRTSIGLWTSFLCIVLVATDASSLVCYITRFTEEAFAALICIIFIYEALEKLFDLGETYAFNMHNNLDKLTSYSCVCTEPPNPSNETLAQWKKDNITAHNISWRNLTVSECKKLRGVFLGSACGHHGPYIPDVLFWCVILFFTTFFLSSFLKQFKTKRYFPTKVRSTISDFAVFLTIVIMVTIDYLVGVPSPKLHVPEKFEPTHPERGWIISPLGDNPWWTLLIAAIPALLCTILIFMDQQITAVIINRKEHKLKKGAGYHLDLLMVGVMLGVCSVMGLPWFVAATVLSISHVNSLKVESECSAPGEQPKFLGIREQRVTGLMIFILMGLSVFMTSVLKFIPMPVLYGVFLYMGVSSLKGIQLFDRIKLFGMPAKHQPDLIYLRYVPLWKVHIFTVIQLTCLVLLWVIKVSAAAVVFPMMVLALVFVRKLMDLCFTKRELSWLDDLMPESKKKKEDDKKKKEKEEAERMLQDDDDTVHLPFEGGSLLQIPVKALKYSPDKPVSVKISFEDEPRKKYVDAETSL
# [7] = system: Na+,HCO3−-cotransport in isolated arteries; details: previously shown; cited from earlier work
# [8] = system: Na+,HCO3−-cotransport in breast cancer slices or freshly isolated breast cancer organoids; details: earlier work; cited from earlier work
# [9] = earlier work; cited from earlier work
# [10] = biological target: T2, NHE1-mediated Na+/H+-exchange in MCF-7 human breast cancer cells (Homo sapiens, UniProt P19634); details: Lauritzen et al., 2010; cited from earlier work
# T2 construct: net acid extrusion from MCF-7 cells occurs through a combination of NBCn1-mediated Na^+,HCO3^−-cotransport and NHE1-mediated Na^+/H^+-exchange; endogenous in cells; host or cells: MCF-7 human breast cancer cells (Lauritzen et al., 2010)
# T2 sequence (P19634 whole entry): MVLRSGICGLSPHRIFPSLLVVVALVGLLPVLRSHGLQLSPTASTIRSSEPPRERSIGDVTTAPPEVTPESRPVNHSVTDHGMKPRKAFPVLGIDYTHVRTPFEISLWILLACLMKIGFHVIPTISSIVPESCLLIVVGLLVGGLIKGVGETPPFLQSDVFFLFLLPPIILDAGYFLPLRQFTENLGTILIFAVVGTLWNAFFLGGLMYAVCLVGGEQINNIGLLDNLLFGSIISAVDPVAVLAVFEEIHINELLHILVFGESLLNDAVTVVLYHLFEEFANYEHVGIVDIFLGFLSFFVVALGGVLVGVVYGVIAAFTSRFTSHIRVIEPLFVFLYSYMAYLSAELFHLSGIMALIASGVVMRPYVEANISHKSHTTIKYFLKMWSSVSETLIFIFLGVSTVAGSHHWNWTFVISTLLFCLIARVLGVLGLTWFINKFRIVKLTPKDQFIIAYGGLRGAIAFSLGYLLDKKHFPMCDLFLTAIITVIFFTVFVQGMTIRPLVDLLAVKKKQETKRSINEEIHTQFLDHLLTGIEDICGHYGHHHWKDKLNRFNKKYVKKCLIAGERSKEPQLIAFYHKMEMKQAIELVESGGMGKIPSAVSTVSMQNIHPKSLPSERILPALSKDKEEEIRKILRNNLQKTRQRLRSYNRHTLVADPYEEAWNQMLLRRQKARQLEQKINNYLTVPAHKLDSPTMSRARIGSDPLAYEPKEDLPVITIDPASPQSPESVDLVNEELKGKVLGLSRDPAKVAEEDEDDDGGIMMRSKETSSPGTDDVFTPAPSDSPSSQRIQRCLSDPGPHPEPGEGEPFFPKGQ
structure (smiles),measurement,setting,value
Cc1ccc(CN(Cc2ccc(-c3ccccc3S(=O)(=O)NC#N)cc2)C(=O)c2ccccc2Cl)cc1 [S0859],"Na+,HCO3−-cotransport activity","[1]; primary aortic explants from WT mice, CO2/HCO3- present, 5 and 30 μM",concentration-dependently attenuates
same,steady-state pHi,"[1]; primary aortic explants, five minutes after addition of S0859",concentration-dependently attenuates
same,wound healing,"[2]; 5 μM, PSS, presence of CO2/HCO3-",inhibited
same,relative number of mitoses,[3],no effect
same,cell integrity and morphology,"primary aortic explants; 5 μM, 18 hours, PSS with CO2/HCO3-",well-maintained
same,cell morphology,"primary aortic explants; 30 μM, 18 hours, PSS with CO2/HCO3-",severe morphological changes
same,cell viability,"primary aortic explants; primary explants, CO2/HCO3−-containing PSS, FIG. 16",causes loss of cell viability
same,presence of filopodia,[4]; CO2/HCO3−-free conditions,unaffected
same,presence of filopodia,"[4]; explants from WT mice, CO2/HCO3−-containing PSS",reduced
same,"pHi of migrating VSMCs, in particular at the tip of filopodia","[5]; 5 μM, 15 minutes exposure, PSS",strongly acidified
same,"Na+,HCO3−-cotransport in cultures of MCF7 breast cancer cells",[6],inhibits
same,cellular net acid extrusion in isolated arteries,[7],does not affect
same,effect in breast cancer slices or freshly isolated breast cancer organoids,[8],has no effect
same,protein binding,[9],unusually strong protein binding
CC(=O)Nc1nnc(S(N)(=O)=O)s1 [acetazolamide],initial rate of wound healing,"[2]; 100 μM, aortic explants from NBCn1 KO mice, CO2/HCO3−-containing medium with serum",increased
same,abundance of filopodia,"[4]; 100 μM, aortic explants from NBCn1 KO mice, presence of CO2/HCO3-",increased abundance
same,axial pHi gradients,"[5]; 100 μM, explants from NBCn1 KO mice, presence of CO2/HCO3-",reestablishes
CCN(c1nc(N)c(C(=O)N=C(N)N)nc1Cl)C(C)C [5-(N-Ethyl-N-isopropyl)amiloride],"remaining net acid extrusion after inhibition of Na+,HCO3−-cotransport in MCF-7 cells",[10],inhibited
C[C@@H](N)[C@H]1CC[C@H](C(=O)Nc2ccncc2)CC1 [Y-27632],wound healing,"[2]; 10 μM, primary aortic explants from NBCn1 KO and WT mice",stimulated
